Experiments:
Format in all cases: in vivo
barnyardgrass [1] = test: Test Example 1: herbicidal effects in preemergence treatment under submerged conditions; details: dose 2.52 g/a
Description: (§1) Test on the Herbicidal Effects in Preemergence Treatment on Weeds Under Submerged Conditions
(§2) Alluvial soil was put in 1/30000-are styrol cups and admixed with water so that it was submerged at a depth of 4 cm. In each cup, seeds of barnyardgrass, bulrush and ducksalad were sown together, and rice seedlings at the 2.5-leaf stage were transplanted. On the same day as the seeding, emulsifiable concentrates containing compounds of the present invention formulated in accordance with Formulation Example 2 were applied to the water surfaces at predetermined doses after diluted with water. The cups were placed in a greenhouse at 25 to 30° C. to grow the plants. Three weeks after the application, the herbicidal effects against various plants were determined on the following evaluation scale.
(§3) 5 mortality of 90% or above (nearly complete death)
(§4) 4 mortality of at least 70% and less than 90%
(§5) 3 mortality of at least 40% and less than 70%
(§6) 2 mortality of at least 20% and less than 40%
(§7) 1 mortality of at least 5% and less than 20%
(§8) 0 mortality of less than 5% (almost ineffective)
(§9) A: barnyardgrass, B: bulrush, C: ducksalad, D: large crabgrass, E: giant foxtail, F: wild oat, G: water foxtail, H: Italian ryegrass, I: velvetleaf, J: common ragweed, K: redroot pigweed, L: common lambsquater, M: posumbu knotweed, N: common chickweed, O: beadstraw, a: transplanted rice, b: corn, c: soybean, d: direct-seeded rice, e: wheat, f: sugar beet.
(§10) The doses (g/a) represents the amounts in g per 1 are (a) applied after adjustment of concentration adjustment.

bulrush [2] = test: as above; details: dose 2.52 g/a
Description: as §1, §2, §3, §4, §5, §6, §7, §8, §9, §10

ducksalad [3] = test: as above; details: dose 2.52 g/a
Description: as §1, §2, §3, §4, §5, §6, §7, §8, §9, §10

transplanted rice = test: Test Example 1: preemergence treatment under submerged conditions, effect on crop; details: dose 2.52 g/a
Description: as §1, §2, §3, §4, §5, §6, §7, §8, §9, §10

barnyardgrass [4] = test: Test Example 2: herbicidal effects during the vegetation period under submerged conditions; details: treatment during the vegetation period under submerged conditions; dose 2.52 g/a
Protocol: (§11) Test on the Herbicidal Effects on Weeds During the Vegetation Period Under Submerged Conditions
(§12) Alluvial soil was put in 1/30000-are styrol cups and admixed with water so that it was submerged at a depth of 4 cm. In each cup, seeds of barnyardgrass, bulrush and ducksalad were sown together, and the cups were placed in a greenhouse at 25 to 30° C. to grow the plants. When the barnyardgrass, bulrush and ducksalad reached the 1- or 2-leaf stage, emulsifiable concentrates containing compounds of the present invention formulated in accordance with Formulation Example 2 were applied to the water surfaces at predetermined doses after diluted with water. Three weeks after the application, the herbicidal effects against various plants were determined on the same evaluation scale as in Test Example 1.
as §9, §10

bulrush [5] = test: as above; details: treatment during the vegetation period under submerged conditions; dose 2.52 g/a
Protocol: as §11, §12, §9, §10

ducksalad [6] = test: as above; details: treatment during the vegetation period under submerged conditions; dose 2.52 g/a
Protocol: as §11, §12, §9, §10

Italian ryegrass [7] = test: Test Example 3: herbicidal effects in soil treatment; details: dose 3.2 g/a
Description: (§13) Test on the Herbicidal Effects in Soil Treatment
(§14) Sterilized diluvial soil was put in plastic boxes with a length of 21 cm, a width of 13 cm and a depth of 7 cm, and seeds of barnyardgrass, large crabgrass, giant foxtail, wild oat, blackgrass, velvetleaf, common ragweed, redroot pigweed, common lambsquater, posumbu knotweed, common chickweed corn, soybean, rice, wheat and sugar beet were sown in spots and covered with an about 1.5 cm-thick soil layer. Emulsifiable concentrates containing compounds of the present invention formulated in accordance with Formulation Example 2 were uniformly applied to the soil surfaces at predetermined doses through a small sprayer after dilute with water. Three weeks after the application, the herbicidal effects against various plants were determined on the same evaluation scale as in Test Example 1.
as §9, §10

barnyardgrass [8] = test: as above; details: dose 3.2 g/a
Description: as §13, §14, §9, §10

common chickweed [9] = test: as above; details: dose 3.2 g/a
Description: as §13, §14, §9, §10

common lambsquater [10] = test: as above; details: dose 3.2 g/a
Description: as §13, §14, §9, §10

common ragweed [11] = test: as above; details: dose 3.2 g/a
Description: as §13, §14, §9, §10

giant foxtail [12] = test: as above; details: dose 3.2 g/a
Description: as §13, §14, §9, §10

large crabgrass [13] = test: as above; details: dose 3.2 g/a
Description: as §13, §14, §9, §10

posumbu knotweed [14] = test: as above; details: dose 3.2 g/a
Description: as §13, §14, §9, §10

redroot pigweed [15] = test: as above; details: dose 3.2 g/a
Description: as §13, §14, §9, §10

water foxtail [16] = test: as above; details: dose 3.2 g/a
Description: as §13, §14, §9, §10

Italian ryegrass [17] = test: Test Example 4: herbicidal effect in foliage treatment; details: dose 3.2 g/a, three weeks after application
Description: (§15) Test on the Herbicidal Effect in Foliage Treatment
as §14, with “chickweed,” for “chickweed”, “The boxes were placed in a greenhouse at 25 to 30° C. to grow the plants. After 14 days, emulsifiable” for “Emulsifiable”, “foliage” for “soil surfaces”, “diluted” for “dilute”
as §9, §10

barnyardgrass [18] = test: as above; details: dose 3.2 g/a, three weeks after application
Description: as §15
as §14, with “chickweed,” for “chickweed”, “The boxes were placed in a greenhouse at 25 to 30° C. to grow the plants. After 14 days, emulsifiable” for “Emulsifiable”, “foliage” for “soil surfaces”, “diluted” for “dilute”
as §9, §10

beadstraw = test: as above; details: dose 3.2 g/a, three weeks after application
Description: as §15
as §14, with “chickweed,” for “chickweed”, “The boxes were placed in a greenhouse at 25 to 30° C. to grow the plants. After 14 days, emulsifiable” for “Emulsifiable”, “foliage” for “soil surfaces”, “diluted” for “dilute”
as §9, §10

common chickweed [19] = test: as above; details: dose 3.2 g/a, three weeks after application
Description: as §15
as §14, with “chickweed,” for “chickweed”, “The boxes were placed in a greenhouse at 25 to 30° C. to grow the plants. After 14 days, emulsifiable” for “Emulsifiable”, “foliage” for “soil surfaces”, “diluted” for “dilute”
as §9, §10

common lambsquater [20] = test: as above; details: dose 3.2 g/a, three weeks after application
Description: as §15
as §14, with “chickweed,” for “chickweed”, “The boxes were placed in a greenhouse at 25 to 30° C. to grow the plants. After 14 days, emulsifiable” for “Emulsifiable”, “foliage” for “soil surfaces”, “diluted” for “dilute”
as §9, §10

common ragweed [21] = test: as above; details: dose 3.2 g/a, three weeks after application
Description: as §15
as §14, with “chickweed,” for “chickweed”, “The boxes were placed in a greenhouse at 25 to 30° C. to grow the plants. After 14 days, emulsifiable” for “Emulsifiable”, “foliage” for “soil surfaces”, “diluted” for “dilute”
as §9, §10

giant foxtail [22] = test: as above; details: dose 3.2 g/a, three weeks after application
Description: as §15
as §14, with “chickweed,” for “chickweed”, “The boxes were placed in a greenhouse at 25 to 30° C. to grow the plants. After 14 days, emulsifiable” for “Emulsifiable”, “foliage” for “soil surfaces”, “diluted” for “dilute”
as §9, §10

large crabgrass [23] = test: as above; details: dose 3.2 g/a, three weeks after application
Description: as §15
as §14, with “chickweed,” for “chickweed”, “The boxes were placed in a greenhouse at 25 to 30° C. to grow the plants. After 14 days, emulsifiable” for “Emulsifiable”, “foliage” for “soil surfaces”, “diluted” for “dilute”
as §9, §10

posumbu knotweed [24] = test: as above; details: dose 3.2 g/a, three weeks after application
Description: as §15
as §14, with “chickweed,” for “chickweed”, “The boxes were placed in a greenhouse at 25 to 30° C. to grow the plants. After 14 days, emulsifiable” for “Emulsifiable”, “foliage” for “soil surfaces”, “diluted” for “dilute”
as §9, §10

redroot pigweed [25] = test: as above; details: dose 3.2 g/a, three weeks after application
Description: as §15
as §14, with “chickweed,” for “chickweed”, “The boxes were placed in a greenhouse at 25 to 30° C. to grow the plants. After 14 days, emulsifiable” for “Emulsifiable”, “foliage” for “soil surfaces”, “diluted” for “dilute”
as §9, §10

velvetleaf = test: as above; details: dose 3.2 g/a, three weeks after application
Description: as §15
as §14, with “chickweed,” for “chickweed”, “The boxes were placed in a greenhouse at 25 to 30° C. to grow the plants. After 14 days, emulsifiable” for “Emulsifiable”, “foliage” for “soil surfaces”, “diluted” for “dilute”
as §9, §10

water foxtail [26] = test: as above; details: dose 3.2 g/a, three weeks after application
Description: as §15
as §14, with “chickweed,” for “chickweed”, “The boxes were placed in a greenhouse at 25 to 30° C. to grow the plants. After 14 days, emulsifiable” for “Emulsifiable”, “foliage” for “soil surfaces”, “diluted” for “dilute”
as §9, §10

CC(C)COC(=O)N(c1ccccc1CN1COC(C)(C(F)(F)F)CC1=O)S(=O)(=O)C(F)(F)F (centres unmarked) [II-50]
A: barnyardgrass, herbicidal effect (evaluation scale 0-5) (barnyardgrass [1]): 5 (mortality of 90% or above (nearly complete death)) | B: bulrush, herbicidal effect (evaluation scale 0-5) (bulrush [2]): 5 (mortality of 90% or above (nearly complete death)) | C: ducksalad, herbicidal effect (evaluation scale 0-5) (ducksalad [3]): 5 (mortality of 90% or above (nearly complete death)) | a: transplanted rice, effect on crop (evaluation scale 0-5) (transplanted rice): 0 (mortality of less than 5% (almost ineffective)) | A: barnyardgrass, herbicidal effect (evaluation scale 0-5) (barnyardgrass [4]): 5 (mortality of 90% or above (nearly complete death)) | B: bulrush, herbicidal effect (evaluation scale 0-5) (bulrush [5]): 5 (mortality of 90% or above (nearly complete death)) | C: ducksalad, herbicidal effect (evaluation scale 0-5) (ducksalad [6]): 5 (mortality of 90% or above (nearly complete death)) | H: Italian ryegrass, herbicidal effect (evaluation scale 0-5) (Italian ryegrass [7]): 0 (mortality of less than 5% (almost ineffective)) | A: barnyardgrass, herbicidal effect (evaluation scale 0-5) (barnyardgrass [8]): 4 (mortality of at least 70% and less than 90%) | N: common chickweed, herbicidal effect (evaluation scale 0-5) (common chickweed [9]): 3 (mortality of at least 40% and less than 70%) | L: common lambsquater, herbicidal effect (evaluation scale 0-5) (common lambsquater [10]): 3 (mortality of at least 40% and less than 70%) | J: common ragweed, herbicidal effect (evaluation scale 0-5) (common ragweed [11]): 3 (mortality of at least 40% and less than 70%) | E: giant foxtail, herbicidal effect (evaluation scale 0-5) (giant foxtail [12]): 2 (mortality of at least 20% and less than 40%) | D: large crabgrass, herbicidal effect (evaluation scale 0-5) (large crabgrass [13]): 3 (mortality of at least 40% and less than 70%) | M: posumbu knotweed, herbicidal effect (evaluation scale 0-5) (posumbu knotweed [14]): 0 (mortality of less than 5% (almost ineffective)) | K: redroot pigweed, herbicidal effect (evaluation scale 0-5) (redroot pigweed [15]): 0 (mortality of less than 5% (almost ineffective)) | G: water foxtail, herbicidal effect (evaluation scale 0-5) (water foxtail [16]): 4 (mortality of at least 70% and less than 90%) | H: Italian ryegrass, herbicidal effect (Italian ryegrass [17]): 0 (mortality of less than 5% (almost ineffective)) | A: barnyardgrass, herbicidal effect (barnyardgrass [18]): 3 (mortality of at least 40% and less than 70%) | O: beadstraw, herbicidal effect (beadstraw): 4 (mortality of at least 70% and less than 90%) | N: common chickweed, herbicidal effect (common chickweed [19]): 3 (mortality of at least 40% and less than 70%) | L: common lambsquater, herbicidal effect (common lambsquater [20]): 2 (mortality of at least 20% and less than 40%) | J: common ragweed, herbicidal effect (common ragweed [21]): 3 (mortality of at least 40% and less than 70%) | E: giant foxtail, herbicidal effect (giant foxtail [22]): 0 (mortality of less than 5% (almost ineffective)) | D: large crabgrass, herbicidal effect (large crabgrass [23]): 0 (mortality of less than 5% (almost ineffective)) | M: posumbu knotweed, herbicidal effect (posumbu knotweed [24]): 0 (mortality of less than 5% (almost ineffective)) | K: redroot pigweed, herbicidal effect (redroot pigweed [25]): 0 (mortality of less than 5% (almost ineffective)) | I: velvetleaf, herbicidal effect (velvetleaf): 0 (mortality of less than 5% (almost ineffective)) | G: water foxtail, herbicidal effect (water foxtail [26]): 1 (mortality of at least 5% and less than 20%)
